Measurements: patent US11311625B2, “Peptide-based multiple-drug delivery vehicle” (priority 2015, dated 2022)
Read-outs that look alike come from different tables or passages of the source.

How the values were obtained:
[1] = Chemo-stability and drug release of conjugates 1a-e in buffers at pH 2, 5 and 7.4 (LC-MS); format: physicochemical; conditions: for half-life at 0.4 mg/ml: buffer
Experimental: Incubation procedure: Aqueous stability was determined at pH 2.0 (phosphate buffer), 5.0 (citrate buffer) and 7.4 (PBS buffer). 100 μl of the stock solutions were diluted to 2.5 ml with the desired buffer and then incubated at 37° C. During the incubation period (up to 200 hrs.), aliquots were removed at different time intervals, filtered and analyzed by LC-MS.
Chemo-stability. The chemo-stability tests of the conjugates were performed at three different pH values; a physiological pH of 7.4, the slightly acidic pH 5, mimicking the microenvironment in tumors, and the more acidic pH 2.
FIGS. 11A-11J present the results of the chemo-stability and drug release profiles assays, conducted for conjugates 1a-e at pH 2, 5 and 7.4. Degradation of 1a (FIG. 11A), 1b (FIG. 11C), 1c (FIG. 11E), 1d (FIG. 11G), 1e FIG. 11 (FIG. 11I), and the release of the corresponding drugs: CLB (FIG. 11B), CPT (FIG. 11D), AM (FIG. 11F), ABT-751 (FIG. 11H), and COMB (FIG. 11J). Stock solutions were prepared by dissolving 5 mg of the measured conjugate in 0.5 ml DMSO. 100 μl of the stock solution were diluted to 2.5 ml with the relevant buffer and then incubated at 37° C. Along the incubation period, aliquots were taken at the desired time points and analyzed by LC-MS.

[2] = Bio-stability and drug release of conjugates 1a-e in murine liver homogenate (LH); format: in vitro ADME, mouse
Experimental: (§1) Preparation of liver homogenate: Mice were sacrificed by CO2 inhalation euthanasia. The livers were removed, minced, washed three times in cold PBS buffer and homogenized in Tris-HCl buffer, pH 7.4 (wt/3 vol.) by dozen strokes in a Potter-Elvehjem glass tissue grinder. The tissue homogenate was centrifuged at 4° C., 14000 rpm, 20 min. The supernatant was carefully collected (liver homogenate) and used immediately or else stored in liquid nitrogen.
Incubation procedure: Incubations were conducted in a 37° C. incubator with 2 ml homogenate (equivalent to 6 mg total protein of mouse liver homogenate) per incubation tube. The samples were prepared by adding 50 μl of stock solution to the homogenate (homogenate mixture) at the beginning of the incubation period. Aliquots of the homogenate mixture were removed after 10, 30, 60, 90, 120 and 180 min and then immediately quenched with 2.5 volumes of ethanol. The samples were centrifuged at 14000 rpm for 15 min. Supernatants were collected, filtered and analyzed by LC-MS.
FIGS. 12A-12E present the results of the bio-stability and drug release profiles assays conducted for conjugates 1a-e in LH. […] Stock solutions were prepared by dissolving 5 mg of the measured conjugate in 0.5 ml DMSO. 50 μl of the stock solution were diluted with 2 ml of fresh mouse liver homogenate and then the mixture was incubated at 37° C. Aliquots were collected at 10, 30, 60, 90 and 120 min, mixed with 2.5 volumes of ethanol and centrifuged (14,000 rpm, 15 min). The supernatants were collected, filtered and analyzed by LC-MS

[3] = test system: H1299 human non-small cell lung carcinoma cells; assay: XTT growth inhibition assay, H1299; format: cell-based; conditions: 10 μM, incubation of 72 h
Experimental: (§2) The cytotoxicity of the peptide-drug conjugates was determined by measuring the mitochondrial enzyme activity, using a commercial XTT assay kit. All samples contained DMSO at final concentration <0.05%. Cells were cultured in micro wells at 2-4×10^4 cells/ml and incubated for 24 h or 72 h. After the first incubation period the cultures were washed and then given fresh medium containing different concentrations of the tested substances. At the end of the second incubation, XTT reagent was added and the cells were re-incubated for additional 2-4 h. During that time the absorbencies in the wells were measured with a TECAN Infinite M200 plate reader at both 480 and 680 nm. The difference between these measurements was used for calculating the % Growth Inhibition (GI) in test wells compared to two controls: cells that were exposed to the medium and solvent, and those that were exposed to a solvent-free medium. All the tests were done in quadruplicates. Each experiment was conducted twice.
(§3) In order to compare the cytotoxic effects of the conjugates relative to the free drugs, the in vitro cytotoxic effect of the drug bioconjugates 1a-e was determined on SSTR2 overexpressed HCT 116 human colorectal carcinoma, H1299 human non-small cell lung carcinoma and TRAMP C2 human prostate cancer cell lines. The SSTR2 low-expressed HEK-293 (Human Embryonic Kidney 293) cell line was used as a negative control. The study was elaborated over a concentration range of 1-10 μM.
FIGS. 13A-13D present the results of the XTT growth inhibition assay conducted for conjugates 1a-e. […] After the treatment, growth inhibition was measured using the XTT assay: The culture medium was replaced by a new one, and then the XTT reagent was added. The wells were incubated for 2-4 hrs. after which the optical density (OD) was measured at 480 and 680 nm. Percentage of growth inhibition for each compound was calculated by comparison of the treated culture versus a control culture (free of any compound). The result shown for each concentration point represents the mean±standard error calculated from two different experiments. […]

[4] = test system: HCT 116, H1299, TRAMP C2 and HEK cell lines; assay: XTT growth inhibition assay, statements over all tested cell lines; format: cell-based, human; conditions: for IC50 values: tested cell lines including HEK; for cytotoxicity throughout the study: 1-10 μM, 24 and 72 h
Experimental: as §2, §3
FIGS. 13A-13D present the results of the XTT growth inhibition assay conducted for conjugates 1a-e. Growth inhibition effect of drug-conjugates versus free drugs was studied on three cell lines with an over-expression of SSTR2 (FIG. 13A. HCT 116; FIG. 13B. H1299; FIG. 13C. TRAMP C2) against the SSTR2 low expression cell line (FIG. 13D) HEK as negative control. All the cell lines were seeded and allowed to adhere in the wells, after which they were treated with the different compounds in increasing concentrations for 24 and 72 hr. After the treatment, growth inhibition was measured using the XTT assay: The culture medium was replaced by a new one, and then the XTT reagent was added. The wells were incubated for 2-4 hrs. after which the optical density (OD) was measured at 480 and 680 nm. Percentage of growth inhibition for each compound was calculated by comparison of the treated culture versus a control culture (free of any compound). The result shown for each concentration point represents the mean±standard error calculated from two different experiments. In each experiment the compounds were tested in quadruplicates.

[5] = Chemo-stability and drug release of 9a and CLB in buffers at pH 2, 5 and 7.4 (LC-MS); format: physicochemical
Experimental: Stock solutions chemo-stability studies were prepared by dissolving 5 mg of the tested compound in 5000 μl of DMSO.
Incubation procedure: Aqueous stability was determined at pH 2, 5 and 7.4. Aliquots (100 μl) of stock solution were diluted to a total of 2.5 mL with the desired buffer and then incubated at 37° C. During the incubation period (up to 160 h) 250 μL portions were drawn at different time intervals, filtered and analyzed by LC-MS.
Peptidyl delivery systems loaded with anticancer drugs are expected to reach their site of action with minimal degradation. The PDS should be stable enough to be absorbed by cancer cells and only then deliver its toxic cargo. Chemo-stability and bio-stability studies may give us a background check for the endurance of our compact peptidyl DDS under the different conditions it is expected to encounter in a potential animal test. To that end, samples of 9a were incubated at pH 2, mimicking stomach conditions, at pH 5 mimicking the microenvironment in tumors, and at physiological pH 7.4, all at 37° C. Aliquots from the stock solutions were extracted at different time intervals and analyzed by LC-MS following the decrease in concentration of 9a (i.e., chemical degradation) and the formation of the dihydroxy derivative 11. In addition, the direct release of the different drugs was also followed based on the increase in the concentration of CLB, AZA and CAMP over time. In this analysis samples of 9a, 11, CLB, AZA and CAMP were used as references. Overall, the HPLC trace presents a very complex mixture of metabolites which could not be exhaustively characterized. Scheme 9 below presented the molecular structure 11.

[6] = Bio-stability of 9a in murine liver homogenate (LH); format: in vitro ADME, mouse
Experimental: as §1, with “the LH and assay:” for “liver homogenate:”, “Tris-HCl,” for “Tris-HCl buffer,”, “7.4 buffer” for “7.4”, “(LH)” for “(liver homogenate)”, “nitrogen. The concentration of protein was measured using the BCA protein assay with bovine serum albumin as a standard.” for “nitrogen.”
Assay incubation procedure: Incubations were conducted in an incubator oven set at 37° C. Each incubation tube contained 2 mL homogenate samples (equivalent to 6 mg total protein of mouse LH). The samples were prepared by adding 50 μL of stock solution to the LH at the beginning of the incubation period. Aliquots (100 μL) of the LH mixture were removed after 10, 30, 60, 90, 120, and 180 min. immediately quenched with 2.5 volumes of ethanol, and centrifuged at 14000 rpm for 15 min. The supernatants were collected, filtered and analyzed by LC-MS.
In order to get a biologically relevant picture of the release sequence of the different drugs, the bio-stability of 9a in murine liver homogenate (LH) was studied. Examination of the degradation rate of 9a, accompanied by cleavage of free drugs, was carried out following the LC-MS trace at different time intervals using premade authentic samples as reference signals.

[7] = test system: TRAMP C2 prostate cancer cell lines; assay: XTT growth inhibition assay, TRAMP C2; format: cell-based, human; conditions: compared with corresponding free drugs
Experimental: as §2, with “The difference between these measurements was used for calculating the % Growth Inhibition (GI) in test wells compared to two controls: cells that were exposed to the medium and solvent, and those that were exposed to a solvent-free medium. All the tests were done in quadruplicates. Each experiment was conducted twice.” left out
In order to compare the cytotoxic effects of the conjugates relative to the free drugs, the in vitro cytotoxic effect of the drug bioconjugates 1a-e was determined on SSTR2 overexpressed HCT 116 human colorectal carcinoma, H1299 human non-small cell lung carcinoma and TRAMP C2 human prostate cancer cell lines. […]
FIGS. 13A-13D present the results of the XTT growth inhibition assay conducted for conjugates 1a-e. […] After the treatment, growth inhibition was measured using the XTT assay: The culture medium was replaced by a new one, and then the XTT reagent was added. The wells were incubated for 2-4 hrs. after which the optical density (OD) was measured at 480 and 680 nm. […]

[8] = mouse, tissue homogenate, pH 7.4, 37° C., read-out: degradation t1/2 in liver homogenate

COc1ccc(S(=O)(=O)Nc2cccnc2Nc2ccc(O)cc2)cc1 [ABT-751, reference compound]
degradation of free drug ([1]; buffers, 37° C.): certain degradation behavior
stability of free drug in liver homogenate ([2]; measured time period): rapid degradation
cytotoxic effect on H1299 [3]: considerable cytotoxic effect
IC50 values [4]: low μM range

O=C(O)CCCc1ccc(N(CCCl)CCCl)cc1 [CLB, Chlorambucil, reference compound]
cytotoxicity throughout the study [4]: poorly active
degradation of pure CLB ([5]; all tested pH values (2, 5, 7.4), 37° C.): considerable degradation
relative stability of CLB ([5]; pH 5): least stable

COc1ccc(/C=C\c2cc(OC)c(OC)c(OC)c2)cc1O [COMB, combretastatin A4]
IC50 values [4]: low μM range

CN(C)CCN1C(=O)c2cccc3cc(N)cc(c23)C1=O [amonafide, reference compound]
stability of free drug ([1]; acidic pH 2): relatively low stability
cytotoxicity throughout the study [4]: poorly active

CC[C@]1(OC(=O)NCCCC[C@H](NC(=O)CCCc2ccc(N(CCO)CCO)cc2)C(=O)NCCCC[C@H](NC(=O)Oc2c(OC)cc([C@H]3c4[nH]c5ccccc5c4CC4COC(=O)N43)cc2OC)C(=O)O)C(=O)OCc2c1cc1n(c2=O)Cc2cc3ccccc3nc2-1 (some centres unmarked) [compound 11]
time after which no traces of 11 are left ([5]; all three pH cases): 40 h
time at which formation of 11 from 9a reaches its maximum ([5]; all three pH cases): 5 h

COc1cc([C@@H]2c3[nH]c4ccccc4c3C[C@H]3COC(=O)N32)cc(OC)c1OC(=O)N[C@@H](C)C(=O)O [compound 12]
time the carbamate link remains intact in LH [6]: at least 120 min

C[C@@H](O)[C@@H]1NC(=O)[C@H](CCCCN)NC(=O)[C@@H](Cc2c[nH]c3ccccc23)NC(=O)[C@H](Cc2c[nH]c3ccccc23)NC(=O)[C@H](Cc2ccccc2)NC(=O)[C@@H](NC(=O)[C@@H](Cc2ccccc2)NC(=O)CCCNC(=O)CCCc2ccc(N(CCCl)CCCl)cc2)CSSCCN(CC(N)=O)C(=O)[C@H](Cc2ccccc2)NC1=O [conjugate 1a]
degradation of conjugate ([1]; all tested pH values (pH 2, 5, 7.4), 37° C.): considerable degradation
CLB release from conjugate ([1]; pH 2, 5 and 7.4, 37° C.): observed only at acidic pH 2
half-life ([1]; pH 2, 37° C., read-out: CLB release t1/2 (converted)): 51 h
half-life ([2]; mouse, tissue homogenate, 37° C., read-out: degradation t1/2 in liver homogenate): 0.95 h
cytotoxicity throughout the study [4]: poorly active

CC[C@@]1(OC(=O)NCCCC(=O)N[C@H](Cc2ccccc2)C(=O)N[C@H]2CSSCCN(CC(N)=O)C(=O)[C@H](Cc3ccccc3)NC(=O)[C@H]([C@@H](C)O)NC(=O)[C@H](CCCCN)NC(=O)[C@@H](Cc3c[nH]c4ccccc34)NC(=O)[C@H](Cc3c[nH]c4ccccc34)NC(=O)[C@H](Cc3ccccc3)NC2=O)C(=O)OCc2c1cc1n(c2=O)Cc2cc3ccccc3nc2-1 [conjugate 1b]
half-life [2, 8]: 0.617 h
cytotoxic effect on H1299 [3]: most active
cytotoxicity throughout the study [4]: targeted but cell selective cytotoxicity

C[C@@H](O)[C@@H]1NC(=O)[C@H](CCCCN)NC(=O)[C@@H](Cc2c[nH]c3ccccc23)NC(=O)[C@H](Cc2c[nH]c3ccccc23)NC(=O)[C@H](Cc2ccccc2)NC(=O)[C@@H](NC(=O)[C@@H](Cc2ccccc2)NC(=O)CCCNC(=O)CCCC(=O)Nc2cc3c4c(cccc4c2)C(=O)N(CCN(C)C)C3=O)CSSCCN(CC(N)=O)C(=O)[C@H](Cc2ccccc2)NC1=O [conjugate 1c]
half-life at 0.4 mg/ml ([1]; pH 2): 48 h
half-life at 0.4 mg/ml ([1]; pH 5): 28 h
half-life at 0.4 mg/ml ([1]; pH 7.4): 103 h

COc1ccc(/C=C\c2cc(OC)c(OC)c(OC)c2)cc1OC(=O)NCCCC(=O)N[C@H](Cc1ccccc1)C(=O)N[C@H]1CSSCCN(CC(N)=O)C(=O)[C@H](Cc2ccccc2)NC(=O)[C@H]([C@@H](C)O)NC(=O)[C@H](CCCCN)NC(=O)[C@@H](Cc2c[nH]c3ccccc23)NC(=O)[C@H](Cc2c[nH]c3ccccc23)NC(=O)[C@H](Cc2ccccc2)NC1=O [conjugate 1e]
degradation of conjugate in acidic media ([1]; acidic media, especially pH 2): degrades rapidly
half-life at 0.4 mg/ml ([1]; pH 2, 37° C., read-out: degradation t1/2): 0.0667 h
half-life at 0.244 mg/ml [2, 8]: 0.433 h
cytotoxic effect on TRAMP C2 [7]: most potent targeted therapeutic effect
cytotoxicity throughout the study [4]: targeted but cell selective cytotoxicity
